Reference: patent publication US20210369642A1, “THERAPEUTIC CANNABINOID DERIVATIVES COMPOSITION AS HISTAMINE 2 (H2) BLOCKING AGENTS” (priority 2018, published 2021)

What was measured:
Assay type in all cases: cell-based
HRH2 [1] = molecular target: T1, HRH2 (Homo sapiens, UniProt P25021); assay: cAMP assay, agonist mode; details: for % Response Average / % Response Replicate 1 / % Response Replicate 2: 10 uM, cAMP, HRH2, Agonist mode
HRH2 [2] = molecular target: T1, HRH2; assay: H2 blockade assay: cAMP assay, antagonist mode (agonist challenge at EC80); details: for antagonist activity against H2 (in words): in-vitro
Description: The cAMP assays can monitor the activation of a GPCR via Gi and Gs secondary messenger signalling in a homogenous, non-imaging assay format using, for example, a technology developed by DiscoverX called Enzyme Fragment Complementation (EFC) with β-galactosidase (β-Gal) as the functional reporter.
The cannabinoid-based pharmaceutical composition according to FIG. 1 was subjected to an H2 blockade assay. For antagonist determination, cells were pre-incubated with sample followed by agonist challenge at the EC80 concentration. Media was aspirated from cells and replaced with 10 μL 1:1 BSS/Hepes: cAMP XS+ Ab reagent. 5 μL of 4X compound was added to the cells and incubated at […] or room temperature for 30 minutes. 5 μL of 4X EC80 agonist was added to cells and incubated at 37° C. or room temperature for 30 or 60 minutes.
The enzyme is split into two complementary portions, Enzyme Acceptor (EA) and Enzyme Donor (ED). ED is fused to cAMP and in the assay competes with cAMP generated by cells for binding to a cAMP-specific antibody. Active β-Gal is formed by complementation of exogenous EA to any unbound ED-cAMP.

HRH1 [3] = molecular target: T2, HRH1 (Homo sapiens, UniProt P35367); assay: Calcium Flux assay, antagonist mode; details: for % Response Average / % Response Replicate 1 / % Response Replicate 2: 10 uM, Calcium Flux, HRH1, Antagonist mode; for antagonist activity against H1 (in words): single concentration of 10 μM
T2 sequence (P35367 whole entry): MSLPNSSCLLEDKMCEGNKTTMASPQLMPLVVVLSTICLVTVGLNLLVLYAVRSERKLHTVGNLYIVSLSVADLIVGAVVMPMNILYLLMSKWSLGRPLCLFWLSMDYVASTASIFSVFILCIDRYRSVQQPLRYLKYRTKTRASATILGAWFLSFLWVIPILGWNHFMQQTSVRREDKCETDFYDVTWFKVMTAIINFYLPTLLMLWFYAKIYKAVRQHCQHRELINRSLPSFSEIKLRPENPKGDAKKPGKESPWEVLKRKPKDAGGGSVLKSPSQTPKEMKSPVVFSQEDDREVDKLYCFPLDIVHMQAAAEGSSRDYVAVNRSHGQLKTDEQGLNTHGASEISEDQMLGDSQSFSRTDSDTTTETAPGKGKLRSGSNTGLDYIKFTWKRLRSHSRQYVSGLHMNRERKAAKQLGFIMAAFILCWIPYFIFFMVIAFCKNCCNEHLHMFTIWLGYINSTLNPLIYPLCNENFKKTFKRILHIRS

HRH1 [4] = molecular target: T2, HRH1; assay: Calcium Flux assay, agonist mode; details: for % Response Average / % Response Replicate 1 / % Response Replicate 2: 10 uM, Calcium Flux, HRH1, Agonist mode
[5] = 10 uM, cAMP, HRH2, Antagonist mode

T1 sequence (P25021 whole entry): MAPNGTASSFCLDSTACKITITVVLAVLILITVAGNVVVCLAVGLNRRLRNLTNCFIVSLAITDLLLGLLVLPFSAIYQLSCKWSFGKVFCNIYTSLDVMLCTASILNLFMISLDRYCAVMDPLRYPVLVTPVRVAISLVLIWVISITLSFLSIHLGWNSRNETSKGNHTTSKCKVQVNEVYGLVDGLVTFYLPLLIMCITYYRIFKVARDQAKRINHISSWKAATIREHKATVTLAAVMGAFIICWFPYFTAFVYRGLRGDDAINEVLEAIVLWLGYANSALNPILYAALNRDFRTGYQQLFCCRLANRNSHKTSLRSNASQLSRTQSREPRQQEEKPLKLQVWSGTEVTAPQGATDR

Row | SMILES | % Response Average (HRH2 [1]) | % Response Replicate 1 (HRH2 [1]) | % Response Replicate 2 (HRH2 [1]) | agonist activity against H2 (in words) (HRH2 [1]; single concentration of 10 μM) | IC50 (HRH2 [2]; dose-response / concentration dependent assay) | antagonist activity against H2 (in words) (HRH2 [2]) | inhibition at 10 µM (HRH2 [2]; preliminary assay, single concentration of 10 μM, read-out: inhibited H2 by %) | % Response Average (HRH1 [3]) | % Response Replicate 1 (HRH1 [3]) | % Response Replicate 2 (HRH1 [3]) | antagonist activity against H1 (in words) (HRH1 [3]) | % Response Average (HRH1 [4]) | % Response Replicate 1 (HRH1 [4]) | % Response Replicate 2 (HRH1 [4]) | agonist activity against H1 (in words) (HRH1 [4]; single concentration of 10 μM) | % Response Average (HRH2 [2]; [5]) | % Response Replicate 1 (HRH2 [2]; [5]) | % Response Replicate 2 (HRH2 [2]; [5])
1 | C=C(C)[C@@H]1CCC(C)=C[C@H]1c1c(O)cc(CCCCC)cc1O [CBD, Cannabidiol] | 5.1% | 4.7% | 5.5% | no agonist activity | 1.53 µM | potent antagonist | 91.5% | 10.1% | 7.6% | 12.5% | no agonist or antagonist activity | 0.3% | 0.3% | 0.2% | no agonist or antagonist activity | – | – | –
2 | CCCCCc1cc(O)c2c(c1)OC(C)(C)[C@@H]1CCC(C)=C[C@@H]21 [THC, Tetrahydrocannabinol, reference compound] | 3.2% | 4.3% | 2.0% | – | – | none | – | 78.2% | 77.0% | 79.3% | showed antagonist activity | −0.7% | −0.5% | −0.9% | – | 7.7% | −2.0% | 17.3%
